Earlier results as cited in patent US20100120744A1, “ACETAM[…] NMDA RECEPTORS” (AUSPEX PHARMACEUTICALS, INC., priority 2008, published 2010).

Details: in vivo

CC(=O)NCCCS(=O)(=O)O [Acamprosate, 3-acetamidopropane-1-sulfonic acid]
metabolism by the body: not metabolized
